Usually ED50 stands for the dose at which the effect has come halfway, by size or by number of responders.

Assay [1] relates to mouse. Kind of assay: Tail clip test (analgesic effect). In kind it is in vivo. Conditions: 100 mpk, intragastric. The procedure:
The assessment of the analgesic effect of the present compounds was conducted in the tail clip test.
A specific clip is applied to the base of the tail of the mouse (adult male weighing 18-25 grams) and the time for the animal to turn around to bite at it is measured. The sensitivity of each mouse is determined one-half hour prior to drug administration. Only those mice attempting to bite the clip are included in the experiment. The test compound is then administered intragastrically and the response to placement of the clip is determined at 30, 60, 90 and 120 minutes after treatment. A response is considered positive if the animal takes more than 2 times the pre-drug time to bite at the clip at any of these time intervals. A test compound is considered active when 50 percent or more of the animals used show a positive response.

Assay [2] deals with castor oil induced diarrhea. Kind of assay: Castor oil induced diarrhea in the rat. Conditions: for ED50: Rattus norvegicus, po, 1 hour before castor oil; for Potency: relative to diphenoxylate hydrochloride. The format is in vivo, Charles River male rats. The procedure:
Adult Charles River male rats were fasted in community cages for 24 hours prior to the test, with free access to water. The compound was administered intragastrically (suspended on 0.5% methycellulose) one hour prior to the administration of castor oil at the dose of 1.0 ml/rat intragastrically. The rats were then observed for the presence or absence of diarrhea, at hourly intervals for up to 8 hours past administration of castor oil. The median effective dose values at each hourly interval were calculated for the compound using the method of Berkson (1953). […] For example:
Comparative Oral Antidiarrheal Potency and Duration of 4-aminomethyl-1-1-(3,3,3-triphenylpropyl)-4-phenylpiperidine hydrochloride (Compound A) to Diphenoxylate hydrochloride in Rat Castor Oil Diarrhea Test.

In the case of `Cl.NCC1(c2ccccc2)CCN(CCC(c2ccccc2)(c2ccccc2)c2ccccc2)CC1` [Compound A, 4-aminomethyl-1-(3,3,3-triphenylpropyl)-4-phenylpiperidine hydrochloride], the analgesic effect result in assay [1] was “weak analgesic effect”. Further, the ED50 in assay [2] (2 hours after castor oil, intragastric) was 3.53 mg/kg; in assay [2] (3 hours after castor oil, intragastric) it was 4.24 mg/kg; in assay [2] (4 hours after castor oil, intragastric), 5.4 mg/kg; in assay [2] (5 hours after castor oil, intragastric), 5.58 mg/kg; in assay [2] (6 hours after castor oil, intragastric), 5.79 mg/kg; in assay [2] (7 hours after castor oil, intragastric), 7.48 mg/kg. The compound also yielded an ED50 in assay [2] (8 hours after castor oil, intragastric) of 7.48 mg/kg. Moreover, the “inhibition of gastrointestinal motility” value in assay [2] (rat castor oil test, intragastric) is “found to inhibit gastrointestinal motility”. Further, the Potency in assay [2] (2 hours after castor oil) is reported as 0.06; in assay [2] (3 hours after castor oil), 0.11; in assay [2] (4 hours after castor oil) it was 0.16; in assay [2] (5 hours after castor oil), 0.24; in assay [2] (6 hours after castor oil), 0.29; in assay [2] (7 hours after castor oil), 0.25. Moreover, the Potency in assay [2] (8 hours after castor oil) was 0.26.

These data come from US4069223A, “4-Aminomethyl-1-(3,3,3-triarylpropyl)-4-arylpiperidine and derivatives thereof” (G. D. Searle & Co., priority 1977, dated 1978).
